Measured values: PubChem BioAssay AID1963973 (Molecular Pharmacology Branch, DTP, NCI, 2024)

System: 883617-216-R-J1-PDC tumor spheroids, viability
Assay: Anticancer human tumor 883617-216-R-J1-PDC patient-derived bladder carcinoma cell line growth inhibition [PI3K]
Settings: spheroids with HUVEC and MSC; for IC50: curve of first compound; for viability, T/C: stronger effect = lower value
Method in brief: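 Spheroid viability read-out. Co-cultures contained the tumor line plus HUVEC and human MSCs. Each agent was paired with a PI3K inhibitor (inavolisib, alpelisib, duvelisib, copanlisib) across half-log dilutions starting at clinical Cmax, or at 10 microM when Cmax was unknown.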

[1] = second compound 0.00316 µM, first compound 0.000316 µM
[2] = second compound 0.00316 µM, first compound 0.001 µM
[3] = second compound 0.00316 µM, first compound 0.00316 µM
[4] = second compound 0.00316 µM, first compound 0.01 µM
[5] = second compound 0.00316 µM, first compound 0.0316 µM
[6] = second compound 0.00316 µM, first compound 0.1 µM
[7] = second compound 0.01 µM, first compound 0.000316 µM
[8] = second compound 0.01 µM, first compound 0.001 µM
[9] = second compound 0.01 µM, first compound 0.00316 µM
[10] = second compound 0.01 µM, first compound 0.01 µM
[11] = second compound 0.01 µM, first compound 0.0316 µM
[12] = second compound 0.01 µM, first compound 0.1 µM
[13] = second compound 0.0316 µM, first compound 0.000316 µM
[14] = second compound 0.0316 µM, first compound 0.001 µM
[15] = second compound 0.0316 µM, first compound 0.00316 µM
[16] = second compound 0.0316 µM, first compound 0.01 µM
[17] = second compound 0.0316 µM, first compound 0.0316 µM
[18] = second compound 0.0316 µM, first compound 0.1 µM
[19] = second compound 0.1 µM, first compound 0.000316 µM
[20] = second compound 0.1 µM, first compound 0.001 µM
[21] = second compound 0.1 µM, first compound 0.00316 µM
[22] = second compound 0.1 µM, first compound 0.01 µM
[23] = second compound 0.1 µM, first compound 0.0316 µM
[24] = second compound 0.1 µM, first compound 0.1 µM
[25] = second compound 0.316 µM, first compound 0.000316 µM
[26] = second compound 0.316 µM, first compound 0.001 µM
[27] = second compound 0.316 µM, first compound 0.00316 µM
[28] = second compound 0.316 µM, first compound 0.01 µM
[29] = second compound 0.316 µM, first compound 0.0316 µM
[30] = second compound 0.316 µM, first compound 0.1 µM
[31] = second compound 1 µM, first compound 0.000316 µM
[32] = second compound 1 µM, first compound 0.001 µM
[33] = second compound 1 µM, first compound 0.00316 µM
[34] = second compound 1 µM, first compound 0.01 µM
[35] = second compound 1 µM, first compound 0.0316 µM
[36] = second compound 1 µM, first compound 0.1 µM
[37] = second compound 0.00316 µM, first compound 0.316 µM
[38] = second compound 0.00316 µM, first compound 1 µM
[39] = second compound 0.00316 µM, first compound 3.16 µM
[40] = second compound 0.00316 µM, first compound 10 µM
[41] = second compound 0.01 µM, first compound 0.316 µM
[42] = second compound 0.01 µM, first compound 1 µM
[43] = second compound 0.01 µM, first compound 3.16 µM
[44] = second compound 0.01 µM, first compound 10 µM
[45] = second compound 0.0316 µM, first compound 0.316 µM
[46] = second compound 0.0316 µM, first compound 1 µM
[47] = second compound 0.0316 µM, first compound 3.16 µM
[48] = second compound 0.0316 µM, first compound 10 µM
[49] = second compound 0.1 µM, first compound 0.316 µM
[50] = second compound 0.1 µM, first compound 1 µM
[51] = second compound 0.1 µM, first compound 3.16 µM
[52] = second compound 0.1 µM, first compound 10 µM
[53] = second compound 0.316 µM, first compound 0.316 µM
[54] = second compound 0.316 µM, first compound 1 µM
[55] = second compound 0.316 µM, first compound 3.16 µM
[56] = second compound 0.316 µM, first compound 10 µM
[57] = second compound 1 µM, first compound 0.316 µM
[58] = second compound 1 µM, first compound 1 µM
[59] = second compound 1 µM, first compound 3.16 µM
[60] = second compound 1 µM, first compound 10 µM
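Further: spheroids exposed to agents for 7 days before the viability read.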

SMILES: CC(=O)c1c(C)c2cnc(Nc3ccc(N4CCNCC4)cn3)nc2n(C2CCCC2)c1=O + COc1c(OCCCN2CCOCC2)ccc2c3n(c(=NC(=O)c4cnc(N)nc4)nc12)CCN3
- IC50 (second compound 0.00316 µM): 41.2 nM
- IC50 (second compound 0.01 µM): 24.7 nM
- IC50 (second compound 0.0316 µM): < 0.316 nM
- IC50 (second compound 0.1 µM): < 0.316 nM
- IC50 (second compound 0.316 µM): < 0.316 nM
- IC50 (second compound 1 µM): < 0.316 nM
- viability, T/C [1]: 63.1%
- viability, T/C [2]: 75.6%
- viability, T/C [3]: 92.5%
- viability, T/C [4]: 72.2%
- viability, T/C [5]: 53.3%
- viability, T/C [6]: 39.7%
- viability, T/C [7]: 71.5%
- viability, T/C [8]: 70.5%
- viability, T/C [9]: 61.2%
- viability, T/C [10]: 71.6%
- viability, T/C [11]: 44.9%
- viability, T/C [12]: 26.4%
- viability, T/C [13]: 40.5%
- viability, T/C [14]: 37.6%
- viability, T/C [15]: 30.2%
- viability, T/C [16]: 27.5%
- viability, T/C [17]: 27.1%
- viability, T/C [18]: 21.6%
- viability, T/C [19]: 16.1%
- viability, T/C [20]: 12.2%
- viability, T/C [21]: 11.1%
- viability, T/C [22]: 13%
- viability, T/C [23]: 11.2%
- viability, T/C [24]: 11.8%
- viability, T/C [25]: 4.61%
- viability, T/C [26]: 5.01%
- viability, T/C [27]: 4.74%
- viability, T/C [28]: 3.95%
- viability, T/C [29]: 4.31%
- viability, T/C [30]: 3.85%
- viability, T/C [31]: 3.24%
- viability, T/C [32]: 2.85%
- viability, T/C [33]: 2.99%
- viability, T/C [34]: 3.68%
- viability, T/C [35]: 2.94%
- viability, T/C [36]: 2.98%

SMILES: CC(C)n1nc(-c2ccc3oc(N)nc3c2)c2c(N)ncnc21 + COc1c(OCCCN2CCOCC2)ccc2c3n(c(=NC(=O)c4cnc(N)nc4)nc12)CCN3
- IC50 (second compound 0.00316 µM): 20.1 nM
- IC50 (second compound 0.01 µM): 10.4 nM
- IC50 (second compound 0.0316 µM): < 0.316 nM
- IC50 (second compound 0.1 µM): < 0.316 nM
- IC50 (second compound 0.316 µM): < 0.316 nM
- IC50 (second compound 1 µM): < 0.316 nM
- viability, T/C [1]: 82.6%
- viability, T/C [2]: 73.9%
- viability, T/C [3]: 79.2%
- viability, T/C [4]: 63.6%
- viability, T/C [5]: 40.7%
- viability, T/C [6]: 17.4%
- viability, T/C [7]: 64.9%
- viability, T/C [8]: 61.8%
- viability, T/C [9]: 62.2%
- viability, T/C [10]: 49.2%
- viability, T/C [11]: 33.4%
- viability, T/C [12]: 14.4%
- viability, T/C [13]: 40.3%
- viability, T/C [14]: 34.1%
- viability, T/C [15]: 34.9%
- viability, T/C [16]: 28.6%
- viability, T/C [17]: 18.5%
- viability, T/C [18]: 11.5%
- viability, T/C [19]: 14.7%
- viability, T/C [20]: 15.1%
- viability, T/C [21]: 15.1%
- viability, T/C [22]: 13.2%
- viability, T/C [23]: 8.07%
- viability, T/C [24]: 4.79%
- viability, T/C [25]: 5.33%
- viability, T/C [26]: 5.54%
- viability, T/C [27]: 5.8%
- viability, T/C [28]: 5.35%
- viability, T/C [29]: 4.04%
- viability, T/C [30]: 3.54%
- viability, T/C [31]: 2.62%
- viability, T/C [32]: 3.45%
- viability, T/C [33]: 3.33%
- viability, T/C [34]: 3.45%
- viability, T/C [35]: 3.43%
- viability, T/C [36]: 2.69%

SMILES: CCCS(=O)(=O)Nc1ccc(F)c(C(=O)c2c[nH]c3ncc(-c4ccc(Cl)cc4)cc23)c1F + COc1c(OCCCN2CCOCC2)ccc2c3n(c(=NC(=O)c4cnc(N)nc4)nc12)CCN3
- IC50 (second compound 0.00316 µM): 4090 nM
- IC50 (second compound 0.01 µM): 3650 nM
- IC50 (second compound 0.0316 µM): < 31.6 nM
- IC50 (second compound 0.1 µM): < 31.6 nM
- IC50 (second compound 0.316 µM): < 31.6 nM
- IC50 (second compound 1 µM): < 31.6 nM
- viability, T/C [5]: 78.5%
- viability, T/C [6]: 88.4%
- viability, T/C [37]: 85.1%
- viability, T/C [38]: 77.9%
- viability, T/C [39]: 61.7%
- viability, T/C [40]: 10.4%
- viability, T/C [11]: 67%
- viability, T/C [12]: 72.6%
- viability, T/C [41]: 85.3%
- viability, T/C [42]: 61.7%
- viability, T/C [43]: 56.6%
- viability, T/C [44]: 13.1%
- viability, T/C [17]: 38.8%
- viability, T/C [18]: 45.7%
- viability, T/C [45]: 47%
- viability, T/C [46]: 44.2%
- viability, T/C [47]: 36.9%
- viability, T/C [48]: 12.8%
- viability, T/C [23]: 25%
- viability, T/C [24]: 19.9%
- viability, T/C [49]: 17.6%
- viability, T/C [50]: 17.8%
- viability, T/C [51]: 18%
- viability, T/C [52]: 7.55%
- viability, T/C [29]: 5.17%
- viability, T/C [30]: 7.28%
- viability, T/C [53]: 6.6%
- viability, T/C [54]: 8.36%
- viability, T/C [55]: 9.94%
- viability, T/C [56]: 4.39%
- viability, T/C [35]: 3.48%
- viability, T/C [36]: 4.22%
- viability, T/C [57]: 4.32%
- viability, T/C [58]: 5.19%
- viability, T/C [59]: 6.41%
- viability, T/C [60]: 2.37%

SMILES: CNC(=O)c1ccc(N2C(=S)N(c3ccc(C#N)c(C(F)(F)F)c3)C(=O)C2(C)C)cc1F + COc1c(OCCCN2CCOCC2)ccc2c3n(c(=NC(=O)c4cnc(N)nc4)nc12)CCN3
- IC50 (second compound 0.00316 µM): > 10000 nM
- IC50 (second compound 0.01 µM): > 10000 nM
- IC50 (second compound 0.0316 µM): < 31.6 nM
- IC50 (second compound 0.1 µM): < 31.6 nM
- IC50 (second compound 0.316 µM): < 31.6 nM
- IC50 (second compound 1 µM): < 31.6 nM
- viability, T/C [5]: 72.6%
- viability, T/C [6]: 79.7%
- viability, T/C [37]: 85.4%
- viability, T/C [38]: 87.3%
- viability, T/C [39]: 98.2%
- viability, T/C [40]: 71.9%
- viability, T/C [11]: 61.9%
- viability, T/C [12]: 68.4%
- viability, T/C [41]: 64.3%
- viability, T/C [42]: 63.4%
- viability, T/C [43]: 73.6%
- viability, T/C [44]: 65.6%
- viability, T/C [17]: 29.5%
- viability, T/C [18]: 39%
- viability, T/C [45]: 47.5%
- viability, T/C [46]: 37.7%
- viability, T/C [47]: 35.9%
- viability, T/C [48]: 29%
- viability, T/C [23]: 16.3%
- viability, T/C [24]: 15.1%
- viability, T/C [49]: 19%
- viability, T/C [50]: 17.3%
- viability, T/C [51]: 16.9%
- viability, T/C [52]: 11.9%
- viability, T/C [29]: 10.4%
- viability, T/C [30]: 5.99%
- viability, T/C [53]: 4.55%
- viability, T/C [54]: 5.36%
- viability, T/C [55]: 5.23%
- viability, T/C [56]: 4.37%
- viability, T/C [35]: 3.25%
- viability, T/C [36]: 3.07%
- viability, T/C [57]: 2.92%
- viability, T/C [58]: 3.17%
- viability, T/C [59]: 4.14%
- viability, T/C [60]: 3.08%
